# Laboratory results from patent EP1370276B1, “INTERCELLULAR COMMUNICATION FACILITATING COMPOUNDS AND THEIR MEDICAL USE” (Zealand Pharma A/S, priority 2001, dated 2002).
# [ ]: non-standard residue; d: D form. Hyp = O=C(O)[C@@H]1C[C@@H](O)CN1
# Tests used:
# [1] = biological target: murine heart tissue preparations; test: Displacement of [125I]AAP10 from murine heart tissue preparations; type: binding, mice; conditions: displacement of 0.8 nM [125I]AAP10, filtrate; read-out: Filtrate IC50
# Method: Hearts are excised from mice (Balb/cJ, 20 g), rinsed twice in ice-cold (0°C) 0.32 M sucrose and homogenized on ice in 10 volumes of sucrose with an Ultra Turrax homogeniser (1000 rpm) for 2 minutes. The homogenate is centrifuged at 1000 gmea" for 10 minutes at 4° C and the supernatant collected and filtrated through 4 layers of gauze. The filtrate is then centrifuged at 50,000 gmean for 45 min at 4° C and the pellet resuspended in 10 volorg. wet weight ice-cold distilled water and incubated for 60 min at 0° C and re-centrifuged at 50,000 gmean at 45 min at 4° C. The resulting pellet is resuspended in 2 vol org. wet weight of PBS (Phosphate Buffered Saline) and stored at - 80° C until use.
# [2] = tested on: phosphoinositol turnover in rat primary cardiomyocytes; test: Phosphoinositol turnover in primary cardiomyocyte cultures; type: cell-based; conditions: for EC50: enhancement of phospho-inositol turnover
# Method: Neonatal Wistar rats (1-2 days old) are used. Hank's calcium- and magnesium-free balanced salt solution, buffered with 10 mM HEPES is used for washing during cell separation procedures. The hearts are excised, the ventricles isolated and the tissue cut into small pieces. The myocardial cells are isolated by stepwise enzymatic degradation with collagenase 0.05%, as described by ^[35]. After repeated rounds of centrifugation and washing, the precipitated cells are resuspended in culture medium M199 with Earle's salt, 10% NCS, penicillin (75 U/mL), and streptomycin (75 U/mL) and pre-plated in a Petri dish for 90 minutes. The non-adherent cells are collected in the culture medium and plated in multidishes at 2.5*10^5 cells/well. The cultures are kept in a water-saturated CO2-incubator at 37°C. The cardiomyocyte cultures are used for analyses after 6-7 days.
# Cardiomyocyte cultures are incubated for 48 hours in culture medium containing 4 µCi/mL myo-[2-^3H]inositol to label the inositol phospholipids. On the day of analysis the medium is replaced by a buffer solution containing lithium and incubated at 37°C, as described by Meier et al. ^[36]. After at least five minutes this buffer is replaced by the same volume of buffer containing test compound and incubated for exactly 20 minutes. The reaction is stopped by rapid replacement of the buffer by ice cold 4%v/v perchloric acid (PCA) and incubation for at least 20 minutes at 0°C. The PCA-extract is neutralised and the [^3H]inosltol phosphates are separated by anion-exchange chromatography using Amprep™ columns containing 100 mg SAX Quaternary amine. The [^3H]inositol mono-phosphates are eluted and radioactivity in the fraction measured by liquid scintillation counting.
# Before adding test substances to the cultures, the cells are depleted of glucose and oxygen by incubating them in a N2-atmosphere in glucose-free lithium-buffer for 10 minutes at 37°C. Control cells are incubated likewise only at normal atmospheric conditions and in a buffer containing glucose.
# [3] = tested on: isolated perfused rabbit hearts; test: Isolated perfused rabbit heart (Langendorff), APD90 dispersion during hypokalemic ischemia; conditions: 10^-10 mol/l
# [4] = tested on: calcium-induced arrythmias; test: Calcium-induced arrhythmia model in mice (time to 2nd degree AV-block); type: in vivo; conditions: for CaCl2 mice Score / CaCl2 mice In vivo, %: calcium chloride induced arrythmia model; for CaCl2 mice Score: no key for the score
# Method: The antiarrhythmic effects of compounds of this invention were tested in an in vivo model of calcium-induced arrythmias according to the model of Lynch et al. ^[37]. […]. Commercial solutions of hypnorm and midazolam were diluted 1:1 in distilled water and one part diluted Hypnorm® is mixed with one part diluted midazolam.
# The anaesthesia was induced by s.c. administration in a dose of […]. An i.v. cannula was inserted into the tail vein. The lead II ECG signal was recorded continuously by positioning of a stainless steel ECG electrodes on the right forelimb and on the left hind limb. The ground electrode was placed on the right hind limb. The signal was amplified (x 5.000-10.000) and filtered (0.1-150 Hz) via a Hugo Sachs Electronic model 689 ECG module. The analogue signal was digitised via a 12 bit data acquisition board (Data Translation model DT321) and sampled at 1000 Hz using the Notocord HEM 3.1 software for Windows NT. After a 10-min equilibration period, the test sample of drug was injected into the tail vein. Mice pre-treated with vehicle were tested as a measure of the control level in untreated animals. The injection volume was 100 µl in all experiments. Infusion of CaCl2 (30 mg/ml, 0.1 ml/min ≈ 100 mg/kg/min (calciumchlorid-2-hydrat, Riedel-de Haën, Germany)) was started 3 min after i.v. administration of drug or vehicle. The time lag to onset of 2nd degree AV-block was determined as the time from the start of CaCl2 infusion until the first arrhythmic event occured. An event of 2nd degree AV-block was defined as intermittent failure of the AV conduction characterised by a P-wave without the concomitant QRS complex.
# Responses were expressed relative to the time until 2nd degree AV-block occurred in vehicle treated mice.
# CHO cells = test: In situ binding of [125I]AAP10 on intact CHO cells; conditions: overnight at 4° C
# Method: CHO cells are seeded in 24-multi well dishes in a density of 7,900 cells/cm^2 (∼ 15,000 cells/well) and grown for 3 Days In Vitro (DIV) in 1 ml/well of F-12K Nutrient Mixture supplemented with 10% Foetal Calf Serum (FCS) and 1000 units penicillin/1000 µg streptomycin (pen/strep) in an atmosphere of 5% CO2 and 100% humidity at 37° C. The cell density has at that time increased to 295,000 cells/cm^2 (152 pgprot/cell ∼ 85 µgprot/well).
# On the day of analysis cells are removed from the incubator and each well is washed twice with, depending on the experiment, either 2 ml pre-warmed (37 °C) or ice-cold (0 °C) D-PBS to remove serum. It is important to keep the period to a minimum during which cells are left without physiological solutions to avoid that they dry out during washing procedures. The cold washed cells are used directly for binding assays while the warm washed cells are used for experiments with glucose and oxygen deprivation.
# The in situ binding is performed by a modified protocol based on the description by Koenig. […] Cells incubate overnight at 4° C to reach equilibrium. Each well, one at the time, is then rinsed rapidly with 2 x 1 ml D-PBS and left to dry.
# 0.25 ml of 0.5 % Triton-X-100 (v/v) is added to each well and cells left for at least 1 h to solubilize. The extract is transferred to counting vials, the wells rinsed with 0.25 ml water and the rinse extract added to the corresponding vials. The vials are counted in a γ-counter. Table 3. In situ binding, IC50 (nM).
# [5] = tested on: cAMP formation in CHO cells; test: Inhibition of forskoline stimulated cAMP formation in CHO cells; type: cell-based; conditions: 10 µM forskoline, 20 min, cells pre-treated with glucose and oxygen deprivation
# Method: CHO cells are seeded in 96-well microtiter plates in a density of 6,000 cells/cm^2 (∼ 2,000 cells/well) and grown for 4 days in vitro in 200 µl/well of growth media as described in the previous section.
# On the day of analysis cells are removed from the incubator and washed twice with 200 µl pre-warmed (37°C) D-PBS (pH 7.2) to remove serum. Cells are incubated for 10 min in glucose free D-PBS and an N2-atmosphere as described in the previous section.
# CHO cells are incubated at 37° C in D-PBS (pH 7.2) containing 6 mM glucose, 2.0 mM IBMX (phospodiesterase blocker), 10 µM forskoline (stimulates cAMP formation) and increasing concentrations of test peptide. The reaction is stopped after 20 min by addition of 20 µl 0.5 M HCl and left for at least 20 min at room temperature.
# The content of cAMP is analysed by mixing 20 µl of the acid cell extract into FlashPlate™ wells (NEN assay kit SMP001) containing 180 µl [^12SI]cAMP tracer solution. FlashPlates™ are incubated overnight at 4° C and plate bound radioactivity counted in TopCount (Packard Instrument). Data are calculated as described in the previous section.
# [6] = In vitro plasma and serum stability, human; type: in vitro ADME; conditions: for T1/2 PLASMA, HEPARIN HUMAN: 37°C
# Method: (§1) The stability of peptides is analysed in serum and plasma. The peptides are incubated at 37°C in plasma or serum and samples taken at approx. 9 regular intervals between t=0 and t=156 min are analysed by HPLC.
# This is done by subsequent injections of the drug, plasma, and a co-injection with the drug and the plasma, followed by optimisation of the LC method parameters until a satisfactory separation is obtained. Three parallel experiments are performed for each plasma type.100 ml of peptide is mixed with 900 ml plasma at t = 0 and incubated at 37°C (drug-plasma mixture conc. 0.1 mg/ml). Samples of 100 ml of the drug-plasma mixture are removed at appropriate intervals and the degradation stopped by precipitation of the sample with 10 ml MeCN:TFA 50:50 v/v. A control plasma sample without the drug treated in the same manner is also taken. The plasma samples are centrifuged for 15 min. at 12,000 rpm (Eppendorf centrifuge) at ambient temperature. The resulting supernatant solution is transferred to 300 ml HP autosamler vials and analyzed by HPLC. The samples are analyzed in the following order: blank, the peptide at 0.1 mg/mL, the plasma without the peptide, the three parallel samples for t = 0, the three parallel samples for t = 5 min. the three parallel samples for t = 10 min. etc. And finally the three parallel samples for t = 0 are repeated to make sure that there have been no degradation or other failure during the analyses. The sample concentrations (peak height in mAU) are plotted vs. time and fitted to a function describing a mono exponential decay (Excel). […] Table 7. Results of in vitro stability test in plasma and serum, T1/2 in min and hrs
# [7] = In vitro plasma and serum stability, rabbit; type: in vitro ADME; conditions: 37°C
# Method: as §1
# This is done by subsequent injections of the drug, plasma, and a co-injection with the drug and the plasma, followed by optimisation of the LC method parameters until a satisfactory separation is obtained. Three parallel experiments are performed for each plasma type.[…] at t = 0 and incubated at 37°C (drug-plasma mixture conc. 0.1 mg/ml). Samples of 100 ml of the drug-plasma mixture are removed at appropriate intervals and the degradation stopped by precipitation of the sample with 10 ml MeCN:TFA 50:50 v/v. A control plasma sample without the drug treated in the same manner is also taken. The plasma samples are centrifuged for 15 min. at 12,000 rpm (Eppendorf centrifuge) at ambient temperature. The resulting supernatant solution is transferred to 300 ml HP autosamler vials and analyzed by HPLC. The samples are analyzed in the following order: blank, the peptide at 0.1 mg/mL, the plasma without the peptide, the three parallel samples for t = 0, the three parallel samples for t = 5 min. the three parallel samples for t = 10 min. etc. […]
substance,measurement,setting,value
"H-GAG[Hyp]PY-NH2 [AAP10, reference compound]",IC50,[1],1.2 nM
same,EC50 value relative to the EC50 value for Compound 2,[2]; during metabolic stress induced by anoxia and glucose deprivation,10 fold
same,EC50 value relative to the EC50 value for Compound 2,[2]; during normoxia,200 fold
same,EC50,[2]; Glucose and oxygen deprivation,100 nM
same,EC50,[2]; Normal conditions,2000 nM
same,"increase in APD90 dispersion during hypokalemic, acute myocardial ischemia",[3],ineffective
same,CaCl2 mice Score,[4],3
same,In vivo activity,"[4]; maximal effect, increase in time until 2nd degree AV-block relative to vehicle, i.v.",+++ (+++ refers to >60% increase in time until arrhythmia)
same,IC50,CHO cells,130 nM
same,EC50,[5],11 nM
cyclo(GAG[Hyp]PYN),"CaCl2 mice In vivo, %",[4],57 +/- 8%
same,CaCl2 mice Score,[4],2
same,"T1/2 PLASMA, HEPARIN HUMAN",[6],9 hrs ± 1%
same,Human plasma half life,[6],13 h
same,"T1/2 PLASMA, HEPARIN RABBIT",[7],30 hrs ± 8%
cyclo(GAG[Hyp]PYQ),"CaCl2 mice In vivo, %",[4],48 +/- 14%
same,CaCl2 mice Score,[4],2
same,"T1/2 PLASMA, HEPARIN HUMAN",[6],15 hrs ± 1%
same,Human plasma half life,[6],15 h
same,"T1/2 PLASMA, HEPARIN RABBIT",[7],14 hrs ± 2%
